Source: PubChem BioAssay (NCI)
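Cultured in 96-well plates, cells were exposed to test compound for 48 hours across five concentrations. The concentration for 50% growth inhibition is given as GI50. The concentration for full growth arrest is given as TGI.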

Legend:
Test in all cases: growth of human tumour cells (NCI), 48 h
UO-31 renal = system: UO-31 renal
SF-268 CNS = system: SF-268 CNS
SN12C renal = system: SN12C renal
LXFL 529 NSCLC = system: LXFL 529 NSCLC
SNB-78 CNS = system: SNB-78 CNS
HCT-15 colon = system: HCT-15 colon
SK-MEL-2 melanoma = system: SK-MEL-2 melanoma
SK-OV-3 ovarian = system: SK-OV-3 ovarian
MCF7 breast = system: MCF7 breast
MDA-MB-231 breast = system: MDA-MB-231 breast

| Structure (SMILES) | TGI (UO-31 renal) | TGI (SF-268 CNS) | TGI (SN12C renal) | TGI (LXFL 529 NSCLC) | TGI (SNB-78 CNS) | GI50 (UO-31 renal) | GI50 (SF-268 CNS) | GI50 (HCT-15 colon) | TGI (HCT-15 colon) | GI50 (SN12C renal) | GI50 (SK-MEL-2 melanoma) | TGI (SK-MEL-2 melanoma) | GI50 (LXFL 529 NSCLC) | GI50 (SK-OV-3 ovarian) | TGI (SK-OV-3 ovarian) | GI50 (SNB-78 CNS) | GI50 (MCF7 breast) | TGI (MCF7 breast) | GI50 (MDA-MB-231 breast) | TGI (MDA-MB-231 breast) |
| --- | --- | --- | --- | --- | --- | --- | --- | --- | --- | --- | --- | --- | --- | --- | --- | --- | --- | --- | --- | --- |
| CC(C)(C)C(=O)O[C@@H]1COC2C(O)COC21 (stereo partly specified) | > 100 µM | > 100 µM | > 100 µM | > 100 µM | > 100 µM |  |  |  |  |  |  |  |  |  |  |  |  |  |  |  |
| CCC(C(=O)[O-])C(=O)[O-].CCC(C(=O)[O-])C(=O)[O-].N.N.NCCCCCCN.[Pt+4].[Pt+4] | 13.6 µM | 24 µM | 17.1 µM | 5.12 µM | 29 µM | 7.06 µM | 11.2 µM | 5000 nM | 13.8 µM | 8.66 µM | 8.4 µM | 16.9 µM | 2370 nM | 10.3 µM | 18.3 µM | 10.7 µM |  |  |  |  |
| Cc1cc(C)c(S(=O)(=O)ONC(=O)OC(C)(C)C)c(C)c1 | > 100 µM | > 100 µM | > 100 µM | > 100 µM | > 100 µM |  |  |  | > 100 µM |  |  | > 100 µM |  |  | > 100 µM |  |  |  |  |  |
| COc1cc([C@@H]2c3cc4c(cc3[C@@H](NC(=O)c3cccc(F)c3)C3COC(=O)[C@@H]32)OCO4)cc(OC)c1O (stereo partly specified) | 11.2 µM | > 100 µM | 2.73 µM | > 100 µM | > 100 µM |  |  |  | 7.09 µM |  |  | 18 µM |  |  | 5.78 µM |  |  |  |  |  |
| O=C(CC(=O)C1CCOC1=O)C(=O)Nc1ccc(Cl)cc1Cl (stereo unspecified) | > 100 µM | > 100 µM | > 100 µM | > 100 µM | > 100 µM |  |  |  | > 100 µM |  |  | > 100 µM |  |  | > 100 µM |  |  |  |  |  |
| COc1ccc(/C(=N/NC(N)=O)C(c2ccc(OC)cc2)C2C(=O)Oc3ccccc32)cc1 (stereo unspecified) | > 100 µM | > 100 µM | > 100 µM | > 100 µM | > 100 µM |  |  |  | > 100 µM |  |  |  |  |  | > 100 µM |  |  |  |  |  |
| OC(c1ccccn1)C1CNc2ccccc21 (stereo unspecified) | > 100 µM | > 100 µM | > 100 µM | > 100 µM | > 100 µM |  |  |  | > 100 µM |  |  | > 100 µM |  |  | > 100 µM |  |  |  |  |  |
| O=C(O)Cn1c(=O)[nH]c(=O)c2c1ncn2Cc1ccccc1 | > 100 µM | > 100 µM | > 100 µM | > 100 µM | > 100 µM |  |  |  | > 100 µM |  |  | > 100 µM |  |  | > 100 µM |  |  |  |  |  |
| CC(=O)NNc1nc(C)c(C(/C=C/c2ccc(Cl)cc2)=N/NC(=O)C[N+](C)(C)C)s1 | > 100 µM | > 100 µM |  | > 100 µM |  |  |  |  | > 100 µM |  |  | > 100 µM |  |  | > 100 µM |  |  |  |  |  |
| COC(=O)c1ccc(Cc2ccc(C(=O)OC)o2)o1 |  | > 378 µM | > 378 µM | > 378 µM |  |  |  |  | > 378 µM |  |  | > 378 µM |  |  | > 378 µM |  |  |  |  |  |
| CCC[CH2][Sn]([CH2]CCC)([O]C(=O)C1CCC(=O)N1)[O]C(=O)C1CCC(=O)N1 (stereo unspecified) | 1.98 µM |  | 1.2 µM | 0.188 µM | 0.759 µM | 0.711 µM |  | 182 nM | 0.353 µM | 0.341 µM | 0.181 µM | 0.367 µM | 49.8 nM | 0.801 µM | 2.02 µM | 0.26 µM |  |  |  |  |
| Cc1ccc(C)c(NC(=O)CCc2nc(=S)[nH][nH]2)c1 | > 100 µM | > 100 µM | > 100 µM | > 100 µM | > 100 µM |  |  |  | > 100 µM |  |  | > 100 µM |  |  | > 100 µM |  |  |  |  |  |
| CCCSC1=NC2C(N(CC)C(=O)N2CC)N1/N=C/C=C/c1ccccc1[N+](=O)[O-] (stereo unspecified) | > 100 µM | > 100 µM | > 100 µM |  |  | 3.86 µM | 4.69 µM | 2940 nM | > 100 µM | 3.84 µM | 7.26 µM | > 100 µM |  | 6.07 µM | > 100 µM |  | 2810 nM | > 100 µM | 2.35 µM | 7.44 µM |
| CCCCCCCCCCCCN(O)C(=O)c1ccccc1 | > 100 µM | 72.2 µM | 71.4 µM | > 100 µM |  |  |  |  | > 100 µM |  |  | > 100 µM |  |  | 92.1 µM |  |  |  |  |  |
| COCCOCC(=O)N(CCn1ccc(NC(c2ccccc2)(c2ccccc2)c2ccccc2)nc1=O)CCn1cnc2nc(N)[nH]c(=O)c21 | > 100 µM | > 100 µM | > 100 µM | > 100 µM | > 100 µM |  |  |  | > 100 µM |  |  | > 100 µM |  |  |  |  |  |  |  |  |
| Cc1nc2n(c(=O)c1CCN1CCC(c3noc4cc(F)ccc34)CC1)CCCC2 | > 50 µM | > 50 µM | > 50 µM |  |  | > 50 µM | > 50 µM | > 50000 nM | > 50 µM | > 50 µM | > 50 µM | > 50 µM |  | > 50 µM | > 50 µM |  | > 50000 nM | > 50 µM | > 50 µM | > 50 µM |
| COc1cnc2c(c1)C(=O)c1c-2n(CCCN2CCCC2)c(=O)c2cc(F)ccc12 | 1.04 µM | 13.9 µM | 10 µM |  |  | 0.152 µM | 0.411 µM | 283 nM | 1.98 µM | 0.214 µM | 1.39 µM | 10.4 µM |  | 0.272 µM | 0.986 µM |  | 48.2 nM | 3.88 µM | 0.926 µM | 2.96 µM |
| O=[N+]([O-])c1ccc2ncccc2c1Cl | > 100 µM | 13.9 µM | > 100 µM |  |  | 5.02 µM | 3.89 µM | 3430 nM | 14.4 µM | 4.3 µM | 9.21 µM | 30.5 µM |  | 3.13 µM | > 100 µM |  | 3550 nM | 12.9 µM | 3.46 µM | 11.9 µM |
| COC1=Nc2ccccc2S(=O)(=O)C=C1 | 12.5 µM | 48.6 µM | 31.7 µM |  |  |  |  |  | 7.89 µM |  |  | 35.8 µM |  |  | > 100 µM |  |  | 12.3 µM |  | 27.2 µM |
| N#CC1(C=O)c2ccccc2C=CN1C(=O)c1ccccc1 (stereo unspecified) | > 100 µM | > 100 µM | > 100 µM | > 100 µM | > 100 µM |  |  |  | > 100 µM |  |  | > 100 µM |  |  |  |  |  |  |  |  |
| C/C(Cc1ccc(Cl)cc1)=C(/c1ccc(Cl)cc1)c1ccc(OCCN(C)C)cc1 | 8.65 µM | 10.1 µM | 8.59 µM |  |  | 4.27 µM | 5.01 µM | 1190 nM | 4.27 µM | 4.18 µM | 5.69 µM | 11.4 µM |  | 5.42 µM | 10.5 µM |  | 1700 nM | 6.31 µM | 4.27 µM | 8.71 µM |
